Several values for one entry are separate records, joined by “and”; a condition that tells them apart may be missing. Equal entries are not always repeated. Entries after “also recorded” stand apart in the source; their conditions may differ.
Key:
Assay type in all cases: in vivo, human
ALMS patients [1] = test: Enhanced Liver Fibrosis (ELF) blood test; design: increase in ELF test score from baseline / Change from Baseline ELF Test, Median / ELF Test score: scale not given here; details: for Change from Baseline ELF Test, Mean (SD) / Change from Baseline ELF Test, Median / ELF Test score / Severity of Liver Fibrosis Based on ELF Test: 800 mg daily oral; for ELF Test score / Severity of Liver Fibrosis Based on ELF Test: individual subjects
Experimental: The study was a Phase 2, single-centre, single-arm, open-label study of sodium 2-(3-pentylphenyl)acetate administered at a total daily oral dose of 800 mg for up to 72 weeks in subjects with ALMS was undertaken. The initial duration of the study was 24 weeks, and subjects were offered to enrol into an extension phase of 36 or 48 weeks. The schedule of study procedures for the enrolment, intervention, and assessments for participants is outlined in FIG. 1. Sodium 2-(3-pentylphenyl)acetate was formulated in soft gelatine capsules containing 200 mg of Sodium 2-(3-pentylphenyl)acetate (amorphous powder) per capsule, polyethylene glycol 400, National Formulary (NF), hydrochloric acid (for pH adjustment), and water. The effect of sodium 2-(3-pentylphenyl)acetate on liver histology in ALMS patients was also assessed using the Enhanced Liver Fibrosis (ELF™) blood test. The ELF™ Blood Test combines three serum biomarkers (Hyaluronic acid (HA), Procollagen III amino terminal peptide (PIIINP), and Tissue inhibitor of metalloproteinase 1 (TIMP-1)) which, when correlated, are able to identify a quantifiable level of liver fibrosis.

ALMS patients [2] = test: Urinary kidney toxicity biomarkers (MCP-1, KIM-1, clusterin, cystatin C, osteopontin); details: analyte/creatinine ratio in urine; 800 mg daily oral
Experimental: The study was a Phase 2, single-centre, single-arm, open-label study of sodium 2-(3-pentylphenyl)acetate administered at a total daily oral dose of 800 mg for up to 72 weeks in subjects with ALMS was undertaken. The initial duration of the study was 24 weeks, and subjects were offered to enrol into an extension phase of […]. The schedule of study procedures for the enrolment, intervention, and assessments for participants is outlined in FIG. 1. Sodium 2-(3-pentylphenyl)acetate was formulated in soft gelatine capsules containing 200 mg of Sodium 2-(3-pentylphenyl)acetate (amorphous powder) per capsule, polyethylene glycol 400, National Formulary (NF), hydrochloric acid (for pH adjustment), and water. […] The levels of these markers was assessed at baseline and after 24 weeks of treatment with sodium 2-(3-pentylphenyl)acetate in ALMS patients, and the results are reported in Table 15.

ALMS patients [3] = test: Fasting plasma glucose (FPG); details: for Change from Baseline FPG, Mean / Change from Baseline FPG, Median / FPG: 800 mg daily oral; for FPG: individual subjects
Experimental: (§1) The study was a Phase 2, single-centre, single-arm, open-label study of sodium 2-(3-pentylphenyl)acetate administered at a total daily oral dose of 800 mg for up to 72 weeks in subjects with ALMS was undertaken. The initial duration of the study was 24 weeks, and subjects were offered to enrol into an extension phase of 36 or 48 weeks. The schedule of study procedures for the enrolment, intervention, and assessments for participants is outlined in FIG. 1. Sodium 2-(3-pentylphenyl)acetate was formulated in soft gelatine capsules containing 200 mg of Sodium 2-(3-pentylphenyl)acetate (amorphous powder) per capsule, polyethylene glycol 400, National Formulary (NF), hydrochloric acid (for pH adjustment), and water.

ALMS patients [4] = test: Fasting insulin; details: for Change from Baseline Fasting Insulin, Mean / Change from Baseline Fasting Insulin, Median: 800 mg daily oral; for decrease of fasting insulin from baseline: Subject 826-001-003
Experimental: as §1

ALMS patients [5] = test: Histological examination of adipocyte tissue artery (perivascular adipose tissue); details: an ALMS subject; after 24 weeks of treatment with 800 mg; FIG. 3B
Experimental: as §1, with “water. Baseline histological examination of an adipocyte tissue artery (perivascular adipose tissue) in an ALMS subject was characterized by signs of dystrophy, homogenized blurred cytoplasm in smooth muscle cells, and nuclei with irregular shape (FIG. 3A).” for “water.”

[6] = Subject 826-001-001, 204-day break in treatment
[7] = Subject 826-001-004, 30-day break in treatment
[8] = Subject 826-001-007, 32-day break in treatment

SMILES: CCCCCc1cccc(CC(=O)[O-])c1.[Na+] [sodium 2-(3-pentylphenyl)acetate]
- subjects in whom ELF test score decreased from baseline (ALMS patients [1]; 6/12 subjects): 50.0%
- subjects in whom severity of liver fibrosis based on the ELF test was stable or improved from baseline (ALMS patients [1]; 10/12 subjects): 83.3%
- Change from Baseline ELF Test, Mean (SD) (ALMS patients [1]; EP Week 12 (Week 36), N=10): −0.24 (1.056)
- Change from Baseline ELF Test, Median (ALMS patients [1]; EP Week 12 (Week 36), N=10): −0.02
- Change from Baseline ELF Test, Mean (SD) (ALMS patients [1]; EP Week 24 (Week 48), N=9): −0.22 (1.086)
- Change from Baseline ELF Test, Median (ALMS patients [1]; EP Week 24 (Week 48), N=9): −0.13
- Change from Baseline ELF Test, Mean (SD) (ALMS patients [1]; EP Week 36 (Week 60), N=8): −0.26 (1.193)
- Change from Baseline ELF Test, Median (ALMS patients [1]; EP Week 36 (Week 60), N=8): −0.03
- change in severity of liver fibrosis based on ELF test (ALMS patients [1]; [6]): increase in liver fibrosis from moderate to severe
- increase in ELF test score from baseline (ALMS patients [1]; [6]): 1.36
- increase in ELF test score from baseline (ALMS patients [1]; [7]): 1.17
- Change from Baseline ELF Test, Mean (SD) (ALMS patients [1]; Week 12, N=12): 0.02 (1.023)
- Change from Baseline ELF Test, Median (ALMS patients [1]; Week 12, N=12): 0.24
- Change from Baseline ELF Test, Mean (SD) (ALMS patients [1]; Week 24, N=12): −0.26 (0.933)
- Change from Baseline ELF Test, Median (ALMS patients [1]; Week 24, N=12): 0.06
- ELF Test score (ALMS patients [1]; EP Week 12 (Week 36)): 9.13 and 8.68 and 7.68 and 8.19 and 6.80 and 9.92 and 8.48 and 11.58 and 8.75 and 8.73
- Severity of Liver Fibrosis Based on ELF Test (ALMS patients [1]; EP Week 12 (Week 36)): Mod (moderate fibrosis ≥ 7.7 to < 9.8); also recorded: NTM (None to mild fibrosis < 7.7); also recorded: Sev (severe fibrosis ≥ 9.8)
- ELF Test score (ALMS patients [1]; EP Week 24 (Week 48)): 10.30 and 8.00 and 6.98 and 7.45 and 6.95 and 8.36 and 11.14 and 8.76 and 8.74
- Severity of Liver Fibrosis Based on ELF Test (ALMS patients [1]; EP Week 24 (Week 48)): Sev (severe fibrosis ≥ 9.8); also recorded: Mod (moderate fibrosis ≥ 7.7 to < 9.8); also recorded: NTM (None to mild fibrosis < 7.7)
- ELF Test score (ALMS patients [1]; EP Week 36 (Week 60)): 10.28 and 8.42 and 7.16 and 9.90 and 8.50 and 10.79 and 8.64 and 8.74
- Severity of Liver Fibrosis Based on ELF Test (ALMS patients [1]; EP Week 36 (Week 60)): Sev (severe fibrosis ≥ 9.8); also recorded: Mod (moderate fibrosis ≥ 7.7 to < 9.8); also recorded: NTM (None to mild fibrosis < 7.7)
- ELF Test score (ALMS patients [1]; Week 12): 8.50 and 8.63 and 9.75 and 7.98 and 7.93 and 7.33 and 10.05 and 9.71 and 10.96 and 8.51 and 11.25 and 9.05
- Severity of Liver Fibrosis Based on ELF Test (ALMS patients [1]; Week 12): Mod (moderate fibrosis ≥ 7.7 to < 9.8); also recorded: NTM (None to mild fibrosis < 7.7); also recorded: Sev (severe fibrosis ≥ 9.8)
- ELF Test score (ALMS patients [1]; Week 24): 9.31 and 9.02 and 8.60 and 7.14 and 7.26 and 7.31 and 10.39 and 8.41 (2×) and 10.69 and 8.47 and 11.29
- Severity of Liver Fibrosis Based on ELF Test (ALMS patients [1]; Week 24): Mod (moderate fibrosis ≥ 7.7 to < 9.8); also recorded: NTM (None to mild fibrosis < 7.7); also recorded: Sev (severe fibrosis ≥ 9.8)
- Urinary Clusterin, Mean Fold Change from Baseline to Week 24 (ALMS patients [2]): 0.66
- Urinary Clusterin, mean change from Baseline to Week 24 (%) (ALMS patients [2]): −34%
- Urinary Cystatin C, Mean Fold Change from Baseline to Week 24 (ALMS patients [2]): 0.75
- Urinary Cystatin C, mean change from Baseline to Week 24 (%) (ALMS patients [2]): −25%
- Urinary KIM-1, Mean Fold Change from Baseline to Week 24 (ALMS patients [2]): 0.67
- Urinary KIM-1, mean change from Baseline to Week 24 (%) (ALMS patients [2]): −33%
- Urinary MCP-1, Mean Fold Change from Baseline to Week 24 (ALMS patients [2]): 0.85
- Urinary MCP-1, mean change from Baseline to Week 24 (%) (ALMS patients [2]): −15%
- Urinary Osteopontin, Mean Fold Change from Baseline to Week 24 (ALMS patients [2]): 0.82
- Urinary Osteopontin, mean change from Baseline to Week 24 (%) (ALMS patients [2]): −18%
- Change from Baseline FPG, Mean (ALMS patients [3]; EP Week 12 (Week 36), N=10): 0.63 mmol/L
- Change from Baseline FPG, Median (ALMS patients [3]; EP Week 12 (Week 36), N=10): -0.10 mmol/L
- Change from Baseline FPG, Mean (ALMS patients [3]; EP Week 24 (Week 48), N=10): 0.70 mmol/L
- Change from Baseline FPG, Median (ALMS patients [3]; EP Week 24 (Week 48), N=10): -0.10 mmol/L
- Change from Baseline FPG, Mean (ALMS patients [3]; EP Week 36 (Week 60), N=9): 1.49 mmol/L
- Change from Baseline FPG, Median (ALMS patients [3]; EP Week 36 (Week 60), N=9): 0.00 mmol/L
- Change from Baseline FPG, Mean (ALMS patients [3]; EP Week 48 (Week 72), N=3): -0.93 mmol/L
- Change from Baseline FPG, Median (ALMS patients [3]; EP Week 48 (Week 72), N=3): 0.00 mmol/L
- increase in FPG from baseline (ALMS patients [3]; [6]): 7.4 mmol/L
- increase in FPG from baseline (ALMS patients [3]; [8]): 7.9 mmol/L
- Change from Baseline FPG, Mean (ALMS patients [3]; Week 12, N=11): 0.30 mmol/L
- Change from Baseline FPG, Median (ALMS patients [3]; Week 12, N=11): -0.40 mmol/L
- Change from Baseline FPG, Mean (ALMS patients [3]; Week 24, N=12): 0.33 mmol/L
- Change from Baseline FPG, Median (ALMS patients [3]; Week 24, N=12): 0.30 mmol/L
- FPG (ALMS patients [3]; EP Week 12 (Week 36)): 18.0 mmol/L and 4.8 mmol/L and 4.3 mmol/L and 5.2 mmol/L and 9.1 mmol/L and 4.4 mmol/L and 6.5 mmol/L and 6.6 mmol/L and 5.5 mmol/L and 19.9 mmol/L
- FPG (ALMS patients [3]; EP Week 24 (Week 48)): 23.3 mmol/L and 3.8 mmol/L and 4.7 mmol/L and 6.9 mmol/L and 10.2 mmol/L and 4.8 mmol/L and 5.7 mmol/L and 6.2 mmol/L and 5.6 mmol/L and 13.8 mmol/L
- FPG (ALMS patients [3]; EP Week 36 (Week 60)): 22.7 mmol/L and 5.0 mmol/L and 4.6 mmol/L and 13.8 mmol/L and 5.3 mmol/L (2×) and 4.7 mmol/L and 8.6 mmol/L and 14.9 mmol/L
- FPG (ALMS patients [3]; EP Week 48 (Week 72)): 12.5 mmol/L and 5.5 mmol/L and 4.7 mmol/L
- FPG (ALMS patients [3]; Week 12): 22.8 mmol/L and 4.6 mmol/L and 4.3 mmol/L and 5.3 mmol/L and 16.9 mmol/L and 7.0 mmol/L and 5.5 mmol/L and 17.6 mmol/L and 6.5 mmol/L and 5.0 mmol/L and 4.7 mmol/L
- FPG (ALMS patients [3]; Week 24): 12.9 mmol/L and 4.9 mmol/L and 4.7 mmol/L and 5.7 mmol/L and 11.1 mmol/L and 4.8 mmol/L and 7.2 mmol/L and 7.4 mmol/L and 22.6 mmol/L and 6.5 mmol/L and 13.5 mmol/L and 6.1 mmol/L
- Change from Baseline Fasting Insulin, Mean (ALMS patients [4]; EP Week 12 (Week 36), N=10): -920.20 pmol/L
- Change from Baseline Fasting Insulin, Median (ALMS patients [4]; EP Week 12 (Week 36), N=10): -53.50 pmol/L
- Change from Baseline Fasting Insulin, Mean (ALMS patients [4]; EP Week 24 (Week 48), N=9): -1371.78 pmol/L
- Change from Baseline Fasting Insulin, Median (ALMS patients [4]; EP Week 24 (Week 48), N=9): -24.00 pmol/L
- Change from Baseline Fasting Insulin, Mean (ALMS patients [4]; EP Week 36 (Week 60), N=8): -1191.63 pmol/L
- Change from Baseline Fasting Insulin, Median (ALMS patients [4]; EP Week 36 (Week 60), N=8): 7.00 pmol/L
- Change from Baseline Fasting Insulin, Mean (ALMS patients [4]; EP Week 48 (Week 72), N=3): -3933.00 pmol/L
- Change from Baseline Fasting Insulin, Median (ALMS patients [4]; EP Week 48 (Week 72), N=3): 193.00 pmol/L
- increase in fasting insulin from baseline (ALMS patients [4]; [6]): 420 pmol/L
- decrease of fasting insulin from baseline (ALMS patients [4]; after 24 weeks): ~30%
- decrease of fasting insulin from baseline (ALMS patients [4]; after 72 weeks): > 96%
- increase in fasting insulin from baseline (ALMS patients [4]; [7]): 298 pmol/L
- increase in fasting insulin from baseline (ALMS patients [4]; [8]): 1970 pmol/L
- increase in fasting insulin from baseline (ALMS patients [4]; Subject 826-001-013, 30-day break in treatment): 1160 pmol/L
- Change from Baseline Fasting Insulin, Mean (ALMS patients [4]; Week 12, N=12): -18.92 pmol/L
- Change from Baseline Fasting Insulin, Median (ALMS patients [4]; Week 12, N=12): 9.00 pmol/L
- Change from Baseline Fasting Insulin, Mean (ALMS patients [4]; Week 24, N=12): -339.08 pmol/L
- Change from Baseline Fasting Insulin, Median (ALMS patients [4]; Week 24, N=12): -86.00 pmol/L
- Fasting Insulin (ALMS patients [4]; by-subject listing, ALMS subjects, EP Week 48 (Week 72)): 460 pmol/L and 600 pmol/L and 303 pmol/L
- histological examination of adipocyte tissue artery (ALMS patients [5]): the adipocyte tissue artery looked more normal
